Assay results from ChEMBL document CHEMBL1154813, “Asymmetric synthesis of anticancer beta-lactams via Staudinger reaction: utilization of chiral ketene from carbohydrate” (2010).

What was measured:
Format in all cases: functional
[1] = Cytotoxicity against human BRO cells by MTT assay
MDA-MB-231 = test: Cytotoxicity against human MDA-MB-231 cells by MTT assay
SK-OV-3 = test: Cytotoxicity against human SKOV3 cells by MTT assay
PC-3 = test: Cytotoxicity against human PC3 cells by MTT assay
HL-60 = test: Cytotoxicity against human HL60 cells by MTT assay
K562 = test: Cytotoxicity against human K562 cells by MTT assay
HT-29 = test: Cytotoxicity against human HT-29 cells by MTT assay

SMILES | INH [1] [µM] | INH (MDA-MB-231) [µM] | INH (SK-OV-3) [µM] | INH (PC-3) [µM] | INH (HL-60) [µM] | INH (K562) [µM] | INH (HT-29) [µM]
CC(=O)O[C@@H]1C(=O)N(c2cc3c4ccccc4ccc3c3ccccc23)[C@H]1c1ccccc1 | 6.1 | 0.8 | 6.8 | 1.4 | 0.7 | 1.1 | 0.7
CC(=O)O[C@H]1C(=O)N(c2cc3c4ccccc4ccc3c3ccccc23)[C@@H]1c1ccccc1 | 22 | 8.5 | 6.1 | 15.5 | 5.4 | 6 | 8.3
CC(=O)O[C@H]1C(=O)N(c2cc3c4ccccc4ccc3c3ccccc23)[C@@H]1c1ccccc1 (racemic) | 15.7 | 8.7 | 8.9 | 11.1 | 0.7 | 1.1 | 2
